The results in this text go back to PubChem BioAssay AID1549 (Sanford-Burnham Center for Chemical Genomics, 2009).

Molecules are shown by their SMILES. Calls of active or inactive are those of the source. How the calls were made is not given here.

In the experiment the target is Influenza A virus M2 proton channel (A/TW/4845/1999 H1N1). Briefly: NMR binding screen, influenza A virus M2 proton channel, Kd (AID 1549). To be noted: M2 protein.
What is called Kd is the equilibrium constant for the complex coming apart. On to `O=C1CSC2(CN3CCC2CC3)N1` (stereo not drawn), for which the Kd is > 4 mM (inactive).

Consider `CCOC(=O)CNC(=O)CSc1nnc(C)c(=O)[nH]1`, for which the Kd was > 4 mM (inactive). Then `O=C(Nn1cnnc1)c1csc2c1CCCC2`, with > 4 mM (inactive). As for `COc1ncccc1N`, the figure is > 4 mM (inactive); as for `S=C(c1cccnc1)N1CCOCC1`, > 4 mM (inactive). Consider `COc1cc(O)c(C)c(O)c1`, for which the Kd is > 4 mM (inactive). As for `CSc1ncc(CO)n1Cc1ccccc1`, the figure is > 4 mM (inactive); as for `CS(=O)(=O)c1nncn1-c1ccccc1`, > 4 mM (inactive). As to `O=c1[nH]c(=O)n(-c2ccc(F)cc2)c(O)c1/C=C1/C=CC=N1`, the Kd is > 4 mM (inactive).

Take `Cc1cccc(NC(=O)Nc2cc(C)on2)c1`: the Kd was > 4 mM (inactive). As for `COc1ccc2c3c([nH]c2c1)C(C)=NCC3`, the figure is > 4 mM (inactive); as for `O=C(Oc1ccc(-c2nnco2)cc1)N1CCCCC1`, > 4 mM (inactive); as for `O=C(O)c1c[nH]c2ccccc12`, > 4 mM (inactive). On to `COc1cc2c(cc1O)CC1c3c(cc(O)c(OC)c3-2)CCN1C` (stereo not drawn), for which the Kd is > 4 mM (inactive). On to `Nc1ccc2nsnc2c1`, for which the Kd is > 4 mM (inactive). As for `CNc1nnc(CSc2nc(C)cc(C)n2)s1`, the figure is > 4 mM (inactive); as for `O=C1NC(=S)S/C1=C/c1ccncc1`, > 4 mM (inactive); as for `O=C(O)CCCCC1SCC2NC(=O)NC21` (stereo not drawn), > 4 mM (inactive). Regarding `O=C(c1ccc(F)cc1)C1CCNCC1`, the Kd is > 4 mM (inactive). Regarding `C/C1=C/CC(C)(C)/C=C/C/C(C)=C/CC1`, the Kd was > 4 mM (inactive). As to `COc1cc(C2NC(=S)NC(C)=C2C(C)=O)ccc1O` (stereo not drawn), the Kd was > 4 mM (inactive). As for `COC(=O)c1noc(-c2ccc(OC)cc2)n1`, the Kd was > 4 mM (inactive). Regarding `O=C1N=c2ccccc2=C1c1[nH]c(=S)[nH]c1O`, the Kd is > 4 mM (inactive). As to `COc1cc2c3cc1Oc1c(OC)c(OC)cc4c1[C@@H](Cc1cccc(c1)Oc1ccc(c(O)c1)C[C@@H]3N(C)CC2)N(C)CC4`, the Kd was > 4 mM (inactive). Turning to `O=C(Nn1cnnc1)c1cc2c(s1)CCCC2`, the Kd is > 4 mM (inactive).

On to `C=C[C@H]1CN2CC[C@H]1C[C@@H]2[C@@H](O)c1ccnc2ccc(OC)cc12`, for which the Kd was > 4 mM (inactive). On to `O=C1CCC([N+](=O)[O-])C(c2ccccc2F)N1` (stereo not drawn), for which the Kd was > 4 mM (inactive). Take `NCCc1cnc[nH]1`: the Kd was > 4 mM (inactive).

Regarding `COc1cc(OC)c2c(=O)c(OC)c(-c3ccc(OC)c(OC)c3)oc2c1`, the Kd was > 4 mM (inactive). As to `O=C(O)C1COc2ccccc2C1` (stereo not drawn), the Kd was > 4 mM (inactive). As to `O=C1CN(C(=O)c2ccccc2)c2ccccc2N1`, the Kd is > 4 mM (inactive). For `NC(=O)CSc1ccc(-c2ccccc2)nn1`, the Kd was > 4 mM (inactive). For `CNC(=S)Nc1ncn(Cc2cccc(F)c2)n1`, the Kd is > 4 mM (inactive). With `NC(=O)Cn1cnc2ccccc21`, the Kd is > 4 mM (inactive). Then `CC1(C)C(=O)C=C[C@@]2(C)C1CC(=O)[C@]1(C)C2CC[C@@]2(C)[C@H](c3ccoc3)OC(=O)[C@H]3O[C@]321` (stereo partly drawn), with > 4 mM (inactive); and `O=C(NCc1cccs1)c1ccc2c(c1)OCCO2`, with > 4 mM (inactive).

Turning to `CC(=O)Oc1ccc(/C=C/c2cc(OC(C)=O)cc(OC(C)=O)c2)cc1`, the Kd is > 4 mM (inactive).

In the case of `CC(=O)Oc1ccc(-c2cc(=O)c3c(OC(C)=O)cc(OC(C)=O)cc3o2)cc1`, the Kd was > 4 mM (inactive). Then `O=C1CC2OCC=C3CN4CC[C@]56c7ccccc7N1C5[C@H]2[C@H]3CC46` (stereo partly drawn), with > 4 mM (inactive); and `CC(=O)c1cccc(N=C2NC(=O)CS2)c1`, with > 4 mM (inactive); and `Cc1cc(C)nc(N(C#N)Cc2ccccc2)n1`, with > 4 mM (inactive). Regarding `CS(C)=C1C(=O)NC(=O)N(Cc2ccc(F)cc2)C1=O`, the Kd was > 4 mM (inactive). With `C=C(C)[C@H]1Cc2c(ccc3c2O[C@@H]2COc4cc(OC)c(OC)cc4[C@@H]2C3=O)O1`, the Kd is > 4 mM (inactive). As to `CC(=O)NCC1OCCc2ccccc21` (stereo not drawn), the Kd is > 4 mM (inactive). Take `CC(=O)n1nc(-c2cccnc2)nc1N`: the Kd was > 4 mM (inactive). Consider `CC(=O)Nc1c(C)n(C)n(-c2ccccc2)c1=O`, for which the Kd is > 4 mM (inactive).

Regarding `NC(=O)CCS(=O)(=O)CCN1CCOCC1`, the Kd is > 4 mM (inactive). Take `Cc1nc2ccccc2c(=O)n1CCCO`: the Kd is > 4 mM (inactive). Then `CNC(=S)N1CCN(C(=O)c2ccco2)CC1`, with > 4 mM (inactive); and `O=S(=O)(c1cccc(Cl)c1)N1CCCC1`, with > 4 mM (inactive). For `O=C(Nc1ccc(-c2nnco2)cc1)c1ccccc1`, the Kd is > 4 mM (inactive). As for `O=C(O)C1(S(=O)(=O)c2ccccc2)CC1`, the Kd is > 4 mM (inactive). As for `Cn1c(SCC(N)=O)nnc1-c1c[nH]c2ccccc12`, the Kd is > 4 mM (inactive). On to `COC(=O)c1ccc2snnc2c1`, for which the Kd was > 4 mM (inactive). In the case of `Cc1noc(C)c1C(=O)Nc1ccccn1`, the Kd is > 4 mM (inactive). With `O=c1c2ccccc2ncn1C1CCCCC1`, the Kd is > 4 mM (inactive). `Cc1cc(N(CN2CCCC2=O)C(=O)c2ccccc2)no1`: the Kd was > 4 mM (inactive). For `CC(=O)Nc1ccn(Cc2c(F)cccc2Cl)n1`, the Kd is > 4 mM (inactive). `CN1CCN(S(=O)(=O)c2ccc(=O)[nH]c2)CC1`: the Kd was > 4 mM (inactive). Regarding `O=C(O)c1cccc2c1OCCCO2`, the Kd is > 4 mM (inactive). Turning to `CC(=O)OCC[C@H](C)CCC=C(C)C`, the Kd was > 4 mM (inactive). Turning to `COc1ccc2c(CC(=O)O)coc2c1`, the Kd is > 4 mM (inactive).

As to `Cc1cc(NC(=O)c2cccc(S(C)(=O)=O)c2)no1`, the Kd is > 4 mM (inactive). As to `Fc1ccc(F)c(CN2CCN(c3ncccn3)CC2)c1`, the Kd was > 4 mM (inactive). For the compound `CCN1CC2(C)CC[C@H](OC)[C@]34C2[C@H](O)C2(OCO[C@@]25C[C@H](OC)[C@H]2C[C@]3(O)C5[C@H]2O)C14`, the Kd was > 4 mM (inactive). On to `O=C(c1cc2ccccc2o1)N1CCCCCC1`, for which the Kd is > 4 mM (inactive).

Take `COC(=O)Cc1cc(=O)n(-c2ccccc2)[nH]1`: the Kd was > 4 mM (inactive). With `O=C1CCCC(=O)N1Cc1ccco1`, the Kd is > 4 mM (inactive). Regarding `COC(=O)c1cn(C(=O)OC)c2ccccc12`, the Kd is > 4 mM (inactive). For `CSc1nc(C)cc(-n2ccc(=O)[nH]c2=O)n1`, the Kd is > 4 mM (inactive).

As to `O=S(=O)(Cc1ccc(Cl)cc1)N1CCCC1`, the Kd was > 4 mM (inactive). Then `OC[C@@H]1CCCN2CCCC[C@H]12`, with > 4 mM (inactive); and `O=C1CCC(=O)N1CNc1ccccc1`, with > 4 mM (inactive); and `O=C(NC(=S)NC1CCSC1=O)c1ccco1` (stereo not drawn), with > 4 mM (inactive).

Regarding `COc1ccc(C(N)=O)cc1NC(C)=O`, the Kd is > 4 mM (inactive).

Consider `CC(=O)Nc1cccc(NC(=O)c2ccco2)c1`, for which the Kd is > 4 mM (inactive). As to `O=C(c1cnsn1)N1CCN(c2ccccc2)CC1`, the Kd was > 4 mM (inactive). In the case of `COc1cc(-c2coc3cc(OCc4ccccc4)c(OC)c(O)c3c2=O)cc(O)c1OC`, the Kd is > 4 mM (inactive).

Turning to `CN1CCC(N(C)C2CCN(C)CC2)CC1`, the Kd is > 4 mM (inactive). On to `Cn1cc(Cl)c(C(=O)NC2CCCC2)n1`, for which the Kd was > 4 mM (inactive). Turning to `CC(=O)NCS(=O)(=O)c1ccc(C)cc1`, the Kd is > 4 mM (inactive). For `c1ccc2c(c1)nnn2C1CCNCC1`, the Kd was > 4 mM (inactive).

In the case of `Cc1n[nH]c(=S)n(/N=C/c2cccs2)c1=O`, the Kd was > 4 mM (inactive). With `Cc1nnsc1C(=O)Nc1ccccn1`, the Kd is > 4 mM (inactive). Then `O=C(O)c1ccc2c(c1)OCCCO2`, with > 4 mM (inactive); and `CCCSc1nnc2[nH]c(=O)cc(N)n12`, with > 4 mM (inactive); and `C[C@H]1[C@H](C)CC[C@]2(C(=O)O)CC[C@]3(C)C(=CCC4[C@@]5(C)C[C@@H](O)[C@H](O)[C@@](C)(CO)C5[C@H](O)C[C@]43C)[C@H]12` (stereo partly drawn), with > 4 mM (inactive). As to `NC(=O)Nc1cccc(C(F)(F)F)c1`, the Kd is > 4 mM (inactive). `O=C(O)Cn1nc(-c2ccccc2)c2ccccc2c1=O`: the Kd was > 4 mM (inactive). `C=C[C@H]1CN2CC[C@H]1C[C@H]2[C@H](O)c1ccnc2ccccc12`: the Kd is > 4 mM (inactive). On to `CCSc1nc2ccccc2n1CC(N)=O`, for which the Kd was > 4 mM (inactive). Consider `c1cc2c(cc1[C@H]1OC[C@H]3[C@@H]1CO[C@H]3c1ccc3c(c1)OCO3)OCO2`, for which the Kd is > 4 mM (inactive).

As to `O=C1Cn2c(nc3ccccc32)N1c1ccccc1F`, the Kd is > 4 mM (inactive). Then `CN1CCC(N2CCCC(C(N)=O)C2)CC1` (stereo not drawn), with > 4 mM (inactive). Consider `CC(=O)Nc1sccc1C(N)=O`, for which the Kd was > 4 mM (inactive). As to `Cn1nccc1N`, the Kd is > 4 mM (inactive).

`Cc1nnc(Nc2cccnc2)[nH]c1=O`: the Kd is > 4 mM (inactive). In the case of `Cc1cc(C)c(C(N)=O)c(=S)[nH]1`, the Kd was > 4 mM (inactive). Consider `CN(C)S(=O)(=O)c1ccc(NC=O)cc1`, for which the Kd was > 4 mM (inactive). With `Cc1nc(-c2ccccc2)sc1C(N)=O`, the Kd is > 4 mM (inactive).

Take `CC(=O)c1ccc(Cc2cnc(N)s2)cc1`: the Kd was > 4 mM (inactive). As for `NC1=C(c2ccccc2)C(=O)c2ccccc21`, the Kd was > 4 mM (inactive). Regarding `COC(=O)c1ccc(/C=C2/NC(=S)NC2=O)cc1`, the Kd is > 4 mM (inactive).
